Reference: patent US6143493A, “HCMV-specific peptides, agents therefor and the use thereof” (Dade Behring Marburg GmbH, priority 1991, dated 2000)

B1: XP1: recombinant protein section, amino acid 718-880 of HCMV protein pp150 (protein)
chain: DPRFTDTLVDITDTETSAKPPVTTAYKFEQPTLTFGAGVNVPAGAGAAILTPTPVNPSTAPAPAPTPTFAGTQTPVNGNSPWAPTAPLPGDMNPANWPRERAWALKNPHLAYNPFRMPTTSTASQNTVSTTPRRPSTPRAAVTQTASRDAADEVWALRDQTA
B2: pp150: HCMV protein pp150 (protein, UniProt P08318 1-1048, looked up)
Large structural …: MSLQFIGLQRRDVVALVNFLRHLTQKPDVDLEAHPKILKKCGEKRLHRRTVLFNELMLWLGYYRELRFHNPDLSSVLEEFEVRCVAVARRGYTYPFGDRGKARDHLAVLDRTEFDTDVRHDAEIVERALVSAVILAKMSVRETLVTAIGQTEPIAFVHLKDTEVQRIEENLEGVRRNMFCVKPLDLNLDRHANTALVNAVNKLVYTGRLIMNVRRSWEELERKCLARIQERCKLLVKELRMCLSFDSNYCRNILKHAVENGDSADTLLELLIEDFDIYVDSFPQSAHTFLGARSPSLEFDDDANLLSLGGGSAFSSVPKKHVPTQPLDGWSWIASPWKGHKPFRFEAHGSLAPAAEAHAARSAAVGYYDEEEKRRERQKRVDDEVVQREKQQLKAWEERQQNLQQRQQQPPPPARKPSASRRLFGSSADEDDDDDDDEKNIFTPIKKPGTSGKGAASGGGVSSIFSGLLSSGSQKPTSGPLNIPQQQQRHAAFSLVSPQVTKASPGRVRRDSAWDVRPLTETRGDLFSGDEDSDSSDGYPPNRQDPRFTDTLVDITDTETSAKPPVTTAYKFEQPTLTFGAGVNVPAGAGAAILTPTPVNPSTAPAPAPTPTFAGTQTPVNGNSPWAPTAPLPGDMNPANWPRERAWALKNPHLAYNPFRMPTTSTASQNTVSTTPRRPSTPRAAVTQTASRDAADEVWALRDQTAESPVEDSEEEDDDSSDTGSVVSLGHTTPSSDYNNDVISPPSQTPEQSTPSRIRKAKLSSPMTTTSTSQKPVLGKRVATPHASARAQTVTSTPVQGRLEKQVSGTPSTVPATLLQPQPASSKTTSSRNVTSGAGTSSASSARQPSASASVLSPTEDDVVSPATSPLSMLSSASPSPAKSAPPSPVKGRGSRVGVPSLKPTLGGKAVVGRPPSVPVSGSAPGRLSGSSRAASTTPTYPAVTTVYPPSSTAKSSVSNAPPVASPSILKPGASAALQSRRSTGTAAVGSPVKSTTGMKTVAFDLSSPQKSGTGPQPGSAGMGGAKTPSDAVQNILQKIEKIKNTEE

Legend:
[1] = tested on: CMV IgG-positive sera; assay: ELISA on peptide-coated microtiter plates with HCMV-positive human sera (localization of epitopes); type: binding; conditions: plates coated with 2.5 μg peptide per ml, serum 1:2; for Reactivity (individual reactivities of the synthetic pXP1 segments with the assayed group of CMV IgG-positive sera): Table 2; for Reactivity (individual reactivities of particularly reactive peptides with the assayed group of CMV IgG-positive sera): Table 3
Description: A microtiter plate with 96 wells was coated with a synthesized peptide. To do this, a solution of 2.5 μg of peptide per ml of carbonate buffer was made up and introduced in 100 μl portions into the wells for the coating. The peptides were adsorbed onto the surfaces at 4° C. overnight and, after removal of the peptide solution, the wells were washed several times with washing buffer (50 mM Tris, pH 7.2, 10 mM EDTA, 0.2% Tween 20). Then individual human serum samples in a 1:2 dilution were introduced and incubated at 37° C. for 1 hour. After another washing step, the conjugate antibody specific for human IgG antibodies or human IgM antibodies and labeled with peroxidase was added and the mixture was incubated at room temperature for 0.5 hour. The reaction was subsequently stopped by adding 0.5 M sulfuric acid and extinction of the individual samples was measured at a wavelength of 450/650 nm in a photometer.
To test the immunogenicity, peptides of various length from the complete amino-acid sequence region from 718 to 880 of the HCMV protein pp150 (Tab. 2 and 3) were synthesized as described in Example 1. Subsequently, as in Example 2, the microtiter plates were coated with the synthesized peptides, and the immunological reactivity was assayed. […] The three immunologically reactive peptides have the following sequences: […]

[2] = tested on: monoclonal antibody 87-55/02; assay: Reaction of monoclonal antibody 87-55/02 with peptide-coated ELISA plate; type: binding; conditions: immunoblot and ELISA reactivity
From the text: It was concluded from the method for selecting the monoclonal antibody that the identified epitope must have a very important structure which is not even destroyed by denaturation of the complete protein. This monoclonal antibody correspondingly reacts both with the synthesized peptide 2.7 (SEQ ID NO:26) and with the recombinant protein XP1 (SEQ ID NO:33) and the pp150 protein of HCMV.

| Molecule | Reactivity (individual reactivities of the synthetic pXP1 segments with the assayed group of CMV IgG-positive sera) [1] | Reactivity (individual reactivities of particularly reactive peptides with the assayed group of CMV IgG-positive sera) [1] | reaction with monoclonal antibody 87-55/02 [2] |
| --- | --- | --- | --- |
| pro arg ala ala val thr gln thr ala ser arg asp ala ala (PRAAVTQTASRDAA) [Peptide 3.1] | 60% | 60% |  |
| arg ala trp ala leu lys asn pro his leu ala tyr asn pro phe (RAWALKNPHLAYNPF) [Peptide 2.10] | 80% | 80% |  |
| phe glu gln pro thr leu thr phe gly ala gly val asn val pro ala gly ala gly ala ala ile leu thr pro thr pro val asn pro ser thr ala pro ala pro ala (FEQPTLTFGAGVNVPAGAGAAILTPTPVNPSTAPAPA) [Peptide 1.4] |  | 90% |  |
| ala tyr lys phe glu gln pro thr leu thr phe gly ala gly val asn val pro ala gly ala gly ala ala ile leu thr pro thr pro val asn pro ser thr ala pro ala pro ala pro (AYKFGQPTLTFGAGVNVPAGAGAAILTPTPVNPSTAPAPAP) [Peptide 1.13] |  | 90% |  |
| pro ala gly ala gly ala ala ile leu thr pro thr pro val asn pro ser thr ala pro ala pro ala pro thr pro thr phe ala gly thr (PAGAGAAILTPTPVNPSTAPAPAPTPTFAGT) [Peptide 1.10] |  | 80% |  |
| ala ser arg asp ala ala asp glu val trp ala leu arg asp gln thr ala (ASRDAADEVWALRDQTA) [Peptide 3.2] | 80% | 80% |  |
| B1 |  |  | reacts |
| B2 |  |  | reacts |
